# Experiments:
# [1] = system: IL-4 response of mouse thymocytes; experiment: suppression of the IL-4 response of mouse thymocytes; format: cell-based; conditions: for inhibition at 0.0001 µg/mL / inhibition at 0.001 µg/mL / inhibition at 0.01 µg/mL / inhibition at 0.1 µg/mL / inhibition at 1 µg/mL: Mus musculus, Thymocyte, 72 h
# Protocol: (§1) The thymus was resected from 6-week-old male C3H/HeN mice, and a single cell suspension was prepared using the serum-free RPMI1640 culture medium. After washing three times, the cell suspension was adjusted to a concentration of 1.5×10^7 cells/ml in the RPMI1640 culture medium supplemented with 10^-4 M 2-mercaptoethanol and 20% FCS. […] After culturing the suspension for further 18 hours, the cells were harvested by a cell harvester, and the radioactivity incorporated into the cells was measured by a liquid scintillation counter, which was used as an index of IL-1, IL-2 or IL-4 response. The suppression of IL-1, IL-2 or IL-4 response was evaluated by calculating the percent suppression by the following formula. [formula]
# [2] = system: IL-2 response of mouse thymocytes; experiment: suppression of the IL-2 response of mouse thymocytes; format: cell-based; conditions: for inhibition at 0.0001 µg/mL / inhibition at 0.001 µg/mL / inhibition at 0.01 µg/mL / inhibition at 0.1 µg/mL / inhibition at 1 µg/mL: Mus musculus, Thymocyte, 72 h
# Protocol: as §1
# [3] = system: mouse acute graft versus host reaction (GVHR); experiment: suppression of mouse acute graft versus host reaction (GVHR); format: in vivo
# Protocol: C57BL/6 mouse spleen cell suspension (2×10^7 cells/mouse) was injected into the right hind footpad of 5- to 7-week-old BDF1 female mice. Seven days after injection, right popliteal lymph node was resected to measure the weight thereof and compare the weight with that of the left popliteal lymph node of the control mice injected with physiological saline, which was used as an index of acute graft versus host reaction (GVHR). The compound of Example 5 was administered intraperitoneally at the dose of 0.3 mg/kg, orally at the dose of 1 mg/kg and intramuscularly at the doses of 0.3 and 1 mg/kg for 6 days from the day of injection, and at the seventh day, the weight of the right poples lymphonodus was measured.
# [4] = system: anti-sheep red blood cell antibody production; experiment: suppression of mouse anti-sheep red blood cell antibody production; format: in vivo; conditions: for Body weight at 4 days later / Body weight on immunized day / Number of PFC per 1 × 10^7 cell / Number of PFC per spleen / Number of spleen cells / Suppression of number of PFC per 1 × 10^7 cell / Suppression of number of PFC per spleen / Wet weight of spleen / Wet weight of thymus: 4 days
# Protocol: Male 5- to 7-week-old BALB/c mice were immunized with sheep red blood cells (5×10^7 cells/mouse, intravenous administration), and the test substance was administered intraperitoneally at the dose of 3 to 10 mg/kg/day for 4 consecutive days from the day of immunization. Four days after immunization, the spleen was resected, and suppression of anti-sheep red blood cell antibody production was examined by counting the number of plaque-forming cells (PFC) by direct plaque method using sheep red blood cells and guinea pig complement. At the same time, the body weight of the mouse, wet weight of the thymus and the spleen, and the number of spleen cells were also determined.
compound,measurement,setting,value
CCCCCCCCCCCCC/C=C/C[C@@H](O)[C@H](O)[C@@](N)(CO)C(=O)O [Example 5],3H-thymidine uptake,"[1]; 0.0001 μg/ml, IL-4 50 U/ml",3190 cpm
same,3H-thymidine uptake,"[1]; 0.0001 μg/ml, IL-4 250 U/ml",45895 cpm
same,3H-thymidine uptake,"[1]; 0.001 μg/ml, IL-4 50 U/ml",2025 cpm
same,3H-thymidine uptake,"[1]; 0.001 μg/ml, IL-4 250 U/ml",39150 cpm
same,3H-thymidine uptake,"[1]; 0.01 μg/ml, IL-4 50 U/ml",1385 cpm
same,3H-thymidine uptake,"[1]; 0.01 μg/ml, IL-4 250 U/ml",33515 cpm
same,3H-thymidine uptake,"[1]; 0.1 μg/ml, IL-4 50 U/ml",815 cpm
same,3H-thymidine uptake,"[1]; 0.1 μg/ml, IL-4 250 U/ml",24655 cpm
same,3H-thymidine uptake,"[1]; 1 μg/ml, IL-4 50 U/ml",885 cpm
same,3H-thymidine uptake,"[1]; 1 μg/ml, IL-4 250 U/ml",21250 cpm
same,inhibition at 0.0001 µg/mL,"[1]; 0.0001 μg/ml, IL-4 50 U/ml",0%
same,inhibition at 0.0001 µg/mL,"[1]; 0.0001 μg/ml, IL-4 250 U/ml",13.1%
same,inhibition at 0.001 µg/mL,"[1]; 0.001 μg/ml, IL-4 50 U/ml",8%
same,inhibition at 0.001 µg/mL,"[1]; 0.001 μg/ml, IL-4 250 U/ml",26%
same,inhibition at 0.01 µg/mL,"[1]; 0.01 μg/ml, IL-4 50 U/ml",40.6%
same,inhibition at 0.01 µg/mL,"[1]; 0.01 μg/ml, IL-4 250 U/ml",36.8%
same,inhibition at 0.1 µg/mL,"[1]; 0.1 μg/ml, IL-4 50 U/ml",69.7%
same,inhibition at 1 µg/mL,"[1]; 1 μg/ml, IL-4 50 U/ml",66.2%
same,inhibition at 1 µg/mL,"[1]; 1 μg/ml, IL-4 250 U/ml",60.2%
same,inhibition at 0.1 µg/mL,"[1]; 0.1 μg/ml, IL-4 250 U/ml",46.3%
same,3H-thymidine uptake,"[2]; 0.0001 μg/ml, IL-2 10 U/ml",2810 cpm
same,3H-thymidine uptake,"[2]; 0.0001 μg/ml, IL-2 50 U/ml",63715 cpm
same,3H-thymidine uptake,"[2]; 0.001 μg/ml, IL-2 10 U/ml",1660 cpm
same,3H-thymidine uptake,"[2]; 0.001 μg/ml, IL-2 50 U/ml",57600 cpm
same,3H-thymidine uptake,"[2]; 0.01 μg/ml, IL-2 10 U/ml",1285 cpm
same,3H-thymidine uptake,"[2]; 0.01 μg/ml, IL-2 50 U/ml",32955 cpm
same,3H-thymidine uptake,"[2]; 0.1 μg/ml, IL-2 10 U/ml",1125 cpm
same,3H-thymidine uptake,"[2]; 0.1 μg/ml, IL-2 50 U/ml",24600 cpm
same,3H-thymidine uptake,"[2]; 1 μg/ml, IL-2 10 U/ml",1300 cpm
same,3H-thymidine uptake,"[2]; 1 μg/ml, IL-2 50 U/ml",25525 cpm
same,inhibition at 0.0001 µg/mL,"[2]; 0.0001 μg/ml, IL-2 10 U/ml",0%
same,inhibition at 0.0001 µg/mL,"[2]; 0.0001 μg/ml, IL-2 50 U/ml",0%
same,inhibition at 0.001 µg/mL,"[2]; 0.001 μg/ml, IL-2 10 U/ml",46.7%
same,inhibition at 0.001 µg/mL,"[2]; 0.001 μg/ml, IL-2 50 U/ml",4.5%
same,inhibition at 0.01 µg/mL,"[2]; 0.01 μg/ml, IL-2 10 U/ml",62.1%
same,inhibition at 0.1 µg/mL,"[2]; 0.1 μg/ml, IL-2 10 U/ml",68.6%
same,inhibition at 0.1 µg/mL,"[2]; 0.1 μg/ml, IL-2 50 U/ml",59.4%
same,inhibition at 1 µg/mL,"[2]; 1 μg/ml, IL-2 10 U/ml",61.5%
same,inhibition at 1 µg/mL,"[2]; 1 μg/ml, IL-2 50 U/ml",58%
same,inhibition at 0.01 µg/mL,"[2]; 0.01 μg/ml, IL-2 50 U/ml",45.5%
same,Body weight 7 days after injection,[3]; 0.3 mg/kg/day im × 6,20.0 ± 0.7 g
same,Popliteal lymph node weight,[3]; 0.3 mg/kg/day im × 6,2.88 ± 0.58 mg
same,Suppression,[3]; 0.3 mg/kg/day im × 6,60.0%
same,Body weight 7 days after injection,[3]; 0.3 mg/kg/day ip × 6,19.0 ± 2.2 g
same,Popliteal lymph node weight,[3]; 0.3 mg/kg/day ip × 6,4.46 ± 1.72 mg
same,Suppression,[3]; 0.3 mg/kg/day ip × 6,38.1%
same,Body weight 7 days after injection,[3]; 1 mg/kg/day im × 6,18.8 ± 1.3 g
same,Popliteal lymph node weight,[3]; 1 mg/kg/day im × 6,2.28 ± 0.48 mg
same,Suppression,[3]; 1 mg/kg/day im × 6,68.3%
same,Body weight 7 days after injection,[3]; 1 mg/kg/day po × 6,20.4 ± 0.6 g
same,Popliteal lymph node weight,[3]; 1 mg/kg/day po × 6,3.30 ± 0.64 mg
same,Suppression,[3]; 1 mg/kg/day po × 6,54.2%
same,mouse acute graft versus host reaction (in words),"[3]; intraperitoneal, oral or intramuscular",strongly suppresses the mouse acute graft versus host reaction (GVHR)
CCCCCCCCCCCCCCCC[C@@H](O)[C@H](O)[C@@](N)(CO)C(=O)O [Example 2],Body weight at 4 days later,[4]; 3 mg/kg/day ip,24 ± 1 g
same,Body weight on immunized day,[4]; 3 mg/kg/day ip,22 ± 1 g
same,Number of PFC per 1 × 10^7 cell,[4]; 3 mg/kg/day ip,5.5 ± 0.8 × 10^3 /1 × 10^7 cell
same,Number of PFC per spleen,[4]; 3 mg/kg/day ip,17.9 ± 3.6 × 10^4 /spleen
same,Number of spleen cells,[4]; 3 mg/kg/day ip,3.3 ± 0.5 × 10^8 cell
same,Suppression of number of PFC per 1 × 10^7 cell,[4]; 3 mg/kg/day ip,36.8%
same,Suppression of number of PFC per spleen,[4]; 3 mg/kg/day ip,23.2%
same,Wet weight of spleen,[4]; 3 mg/kg/day ip,58 ± 11 mg
same,Wet weight of thymus,[4]; 3 mg/kg/day ip,318 ± 42 mg
same,Body weight at 4 days later,[4]; 10 mg/kg/day ip,23 ± 1 g
same,Body weight on immunized day,[4]; 10 mg/kg/day ip,22 ± 1 g
same,Number of PFC per 1 × 10^7 cell,[4]; 10 mg/kg/day ip,4.0 ± 2.0 × 10^3 /1 × 10^7 cell
same,Number of PFC per spleen,[4]; 10 mg/kg/day ip,10.2 ± 5.5 × 10^4 /spleen
same,Number of spleen cells,[4]; 10 mg/kg/day ip,2.5 ± 0.2 × 10^8 cell
same,Suppression of number of PFC per 1 × 10^7 cell,[4]; 10 mg/kg/day ip,54.9%
same,Suppression of number of PFC per spleen,[4]; 10 mg/kg/day ip,56.2%
same,Wet weight of spleen,[4]; 10 mg/kg/day ip,58 ± 10 mg
same,Wet weight of thymus,[4]; 10 mg/kg/day ip,233 ± 25 mg
same,effect on anti-sheep red blood cell antibody production (in words),[4]; ip,exhibits suppressive effect on anti-sheep red blood cell antibody production
